Assay results reported in patent publication US4511568A, “CNS-Depressant pyrazolopyridines” (ICI Americas Inc., priority 1982, dated 1985).

Key:
[1] = test system: [^3 H]flunitrazepam binding, lysed mitochondrial-synaptosomal (P2) fraction from the cerebral cortex; settings: general statement on reference compounds; cited from earlier work
rats = test: Shock-Induced Suppression of Drinking (Rats) (SSD) Test; type: in vivo, rat; settings: significant, P less than 0.05, Students' t-test, vs control
Method: Male rats in the weight range of 200 to 220 grams are deprived of water for 48 hours and deprived of food for 24 hours before testing. Normally, the rats are orally intubated (5 ml/kg) with the test compound (based on mg/kg body weight). The vehicle control group of rats is also intubated by mouth. A positive control group of rats is also orally administered a control dose of 18 mg/kg of chlordiazepoxide. Random selection of the rats is utilized in dosing. The rats are returned to the cage for one hour. Sixty minutes after drug administration, the rat is quietly removed from its cage and the hind feet wiped with Signa electrode gel made by Parker Laboratories or Orange, N.J. When intraperitoneal (i.p.) administration was used, the protocol was identical except that the drugs were administered (5 ml/kg) 30 minutes prior to testing. The rat is placed on the floor in the chamber facing the licking tube. The animal is allowed 5 minutes to make 20 licking responses and receive the first shock (0.5 mA). […] This period is automatically started, counted and terminated. The number of licks and shocks are recorded. The activity of the compound tested is evaluated by comparing the mean shocks of the group dosed with the test compound to both the mean shocks of the vehicle and positive control groups via a Students' t-test. […]

[2] = test system: [^3 H]flunitrazepam binding, lysed mitochondrial-synaptosomal (P2) fraction from the cerebral cortex; test: [^3 H]flunitrazepam binding test; settings: 0.2 nM [^3 H]flunitrazepam, rat cerebral cortex membranes, 90 min at 0° C.
[3] = approximate oral LD50 in the rat; settings: in vivo
monkeys = test: oral administration to monkeys, deaths; type: in vivo, monkey; settings: 100 mg/kg

| Structure (SMILES) | effect on flunitrazepam binding (known compounds) [1] | increase in the number of shocks taken (anti-conflict / anti-anxiety activity) (rats) | effect on flunitrazepam binding [2] | LD50 [3] | deaths (monkeys) |
| --- | --- | --- | --- | --- | --- |
| CCCCNc1c(C(=O)OCC)cnc2c1cnn2CC [cartazolate] | enchancement of the binding | – | – | – | – |
| CCCCCn1ncc2c(N)c3c(nc21)CN(CCC)C3=O [Example 5, 4-Amino-6,7-dihydro-1-n-pentyl-6-n-propylpyrazolo[3,4-b]pyrrolo[3,4-e]pyridin-5(1H)-one] | – | showed activity | activity as displacers of flunitrazepam binding | > 800 mg/kg | no deaths |
| CCCCNc1c(C(=O)OCC)c(C)nc2c1cnn2CC [tracazolate] | enchancement of the binding | – | – | – | – |
| C=CCN1Cc2nc3c(cnn3CCCCC)c(N)c2C1=O [Example 4, 6-Allyl-4-amino-6,7-dihydro-1-n-pentylpyrazolo[3,4-b]pyrrolo[3,4-e]pyridin-5(1H)-one] | – | showed activity | activity as displacers of flunitrazepam binding | – | – |
